According to patent publication US20230226160A1, “COMPOSITIONS AND METHODS FOR TREATING BACTERIAL INFECTIONS” (MUCPHARM PTY LTD, priority 2020, published 2023):
Entries after “also recorded” stand apart in the source; their conditions may differ.

Legend:
Type in all cases: cell-based
[1] = test system: Pseudomonas aeruginosa ATCC 31461 biofilms; assay: Anti-biofilm activity on 48-hour Pseudomonas aeruginosa ATCC 31461 biofilms, 4-hour treatment, crystal violet; settings: FIG. 6
Description: Each plate was then incubated at 37° C. for 24 hrs and, afterwards, the plates were treated with various concentrations of acetylcysteine, bromelain and/or ampicillin. The plate was then incubated at 37° C. for 4 hrs.
(§1) After treatment, the cells were fixed with 99% methanol and stained with 1% crystal violet. The stained biofilm was dissolved with 33% acetic acid and the absorbance was read at 590 nm. The results were analyzed using Prism GraphPad software.

biofilm = assay: Inventor's summary statements on biofilm experiments; settings: at therapeutically appropriate dosages
[2] = test system: Staphylococcus aureus ATCC 6538 biofilms; assay: Anti-biofilm activity on preformed 24-hour/48-hour Staphylococcus aureus ATCC 6538 biofilms, 4-hour treatment, crystal violet, 590 nm; settings: 24-hour biofilm
Description: The plates were then incubated at 37° C. for 4 hrs. After treatment, the cells were fixed with 99% methanol and stained with 1% crystal violet. The stained biofilm was dissolved with 33% acetic acid and the absorbance was read at 590 nm. The results were analyzed using Prism GraphPad software.

[3] = test system: Pseudomonas aeruginosa PA01 398 biofilms; assay: Anti-biofilm activity on 48-hour Pseudomonas aeruginosa PA01 398 biofilms, 4-hour combined or staged treatment, crystal violet; settings: NAC 25 and 50 mg/ml single agent, FIG. 9
Description: Each plate was then incubated at 37° C. for 24 hrs and, afterwards, the plates were treated with various concentrations of acetylcysteine, bromelain, gentamicin, ampicillin and combinations thereof. The plate was then incubated at 37° C. for 4 hrs.
as §1
Each plate was then incubated at 37° C. for 24 hrs and, afterwards, the plates were treated with various concentrations of acetylcysteine, bromelain and either gentamicin or ampicillin. The plate was then incubated at 37° C. for 4 hrs. After treatment, the cells were fixed with 99% methanol and stained with 1% crystal violet. The stained biofilm was dissolved with 33% acetic acid and the absorbance was read at 590 nm. The results were analyzed using Prism GraphPad software.
In the first series of experiments, the results of which are shown in FIG. 12, 48-hour Pseudomonas aeruginosa PA01 398 biofilms were treated for 4-hours with the compositions shown in the table including ampicillin (50-200 μg/mL), bromelain (25 μg/mL) and acetylcysteine (10 mg/mL) in 5% glucose. […]

Compound | effectiveness on biofilm ([1]; acetylcysteine 25 mg/mL single agent) | effectiveness on biofilm ([1]; acetylcysteine 50 mg/ml single agent) | effect of acetylcysteine alone on biofilm (biofilm) | effect on biofilm eradication ([2]; acetylcysteine 20 mg/mL single treatment, 4-hour, FIG. 3) | effect on biofilm as single agent [3] | biofilm eradication ([2]; gentamicin 12 μg/ml single agent, 4-hour, FIG. 5) [%] | effectiveness of single agent (eradication) ([2]; gentamicin 16 μg/ml single agent, compared to the concentration in combination, FIG. 5) [%] | biofilm eradication ([2]; gentamicin 35 μg/ml single agent, most effective gentamicin treatment)
CC(=O)N[C@@H](CS)C(=O)O [acetylcysteine] | not effective | moderately effective | no appreciable effect; also recorded: relatively ineffective | no effect on biofilm eradication | antagonistic |  |  | 
gentamicin |  |  |  |  |  | 2 | 5 | approximately 60%
